Assay results: ChEMBL document CHEMBL4038322, “Interactions between β2-Adrenoceptor Ligands and Membrane: Atomic-Level Insights from Magic-Angle Spinning NMR” (J Med Chem, 2017)
Calls of active or inactive are those of the source. The calls are words filed in the database; no cut-off is given here.

Columns and labels:
Lipid bilayer [1] = experiment: Binding affinity to POPC liposome membrane in liquid disorder phase assessed as change in cross-relaxation rate of hydrophilic group B protons with G-1 segment at compound to POPC molar ratio of 1:10 to 1:5 by 1D 1H […] analysis
Lipid bilayer [2] = experiment: Binding affinity to POPC liposome membrane assessed as cross-relaxation rate of E proton with C-3/C-2 region of lipid at compound to POPC molar ratio of 1:10 by NOESY 1H NMR analysis
[3] = n-octanol/PBS/sodium carbonate partition coefficient, log P of the compound after 4 hrs; type: physicochemical
[4] = Lipophilicity of the compound assessed as capacity factor (CHI IAM7.4) at pH 7.4 by chromatographic analysis; type: physicochemical; conditions: buffer
Lipid bilayer [5] = experiment: Binding affinity to POPC liposome membrane assessed as 31P chemical shift anisotropy at compound to POPC molar ratio of 1:10 by NMR analysis (reference value: 28.9 ppm)
Lipid bilayer [6] = experiment: Binding affinity to POPC liposome membrane in liquid disorder phase assessed as change in cross-relaxation rate of hydrophilic group B protons with G-3 segment at compound to POPC molar ratio of 1:10 to 1:5 by 1D 1H […] analysis
Lipid bilayer [7] = experiment: Binding affinity to POPC liposome membrane assessed as cross-relaxation rate of F proton with C-3/C-2 region of lipid at compound to POPC molar ratio of 1:10 by NOESY 1H NMR analysis
Lipid bilayer [8] = experiment: Binding affinity to POPC liposome membrane at compound to POPC molar ratio of 1:10 after 300 milliseconds by NOESY 1H NMR analysis
Lipid bilayer [9] = experiment: Binding affinity to POPC liposome membrane assessed as cross-relaxation rate of H proton with C-3/C-2 region of lipid at compound to POPC molar ratio of 1:10 by NOESY 1H NMR analysis
Lipid bilayer [10] = experiment: Binding affinity to POPC liposome membrane in liquid disorder phase assessed as broadening of POPC signals at compound to POPC molar ratio of 1:5 by 1D 1H […] analysis
Lipid bilayer [11] = experiment: Binding affinity to POPC liposome membrane in liquid disorder phase assessed as change in cross-relaxation rate of lypophilic group E protons with C2/C3 segment at compound to POPC molar ratio of 1:10 to 1:5 by 1D 1H […] analysis
Lipid bilayer [12] = experiment: Binding affinity to POPC liposome membrane at compound to POPC molar ratio of 1:10 after 3 milliseconds in presence of Mn2+ by 2D NOESY NMR analysis
Lipid bilayer [13] = experiment: Binding affinity to POPC liposome membrane at compound to POPC molar ratio of 1:10 after 3 milliseconds by 2D NOESY NMR analysis
Lipid bilayer [14] = experiment: Binding affinity to POPC liposome membrane assessed as 31P chemical shift anisotropy at compound to POPC molar ratio of 1:10 in presence of Mn2+ by NMR analysis
Lipid bilayer [15] = experiment: Binding affinity to POPC liposome membrane assessed as cross-relaxation rate of F protons with segment gamma at compound to POPC molar ratio of 1:10 by NOESY 1H NMR analysis; parameters: scale not given: the % may be the effect or the level left
Lipid bilayer [16] = experiment: Binding affinity to POPC liposome membrane assessed as cross-relaxation rate of F protons with lipid acyl CH3 at compound to POPC molar ratio of 1:10 by NOESY 1H NMR analysis; parameters: scale not given: the % may be the effect or the level left
Lipid bilayer [17] = experiment: Binding affinity to POPC liposome membrane assessed as cross-relaxation rate of F protons with segment G-3 at compound to POPC molar ratio of 1:10 by NOESY 1H NMR analysis; parameters: scale not given: the % may be the effect or the level left
Lipid bilayer [18] = experiment: Binding affinity to POPC liposome membrane assessed as cross-relaxation rate of E protons with C2/C3 segment at compound to POPC molar ratio of 1:10 by NOESY 1H NMR analysis
Lipid bilayer [19] = experiment: Binding affinity to POPC liposome membrane assessed as cross-relaxation rate of F protons with segment beta at compound to POPC molar ratio of 1:10 by NOESY 1H NMR analysis; parameters: scale not given: the % may be the effect or the level left
Lipid bilayer [20] = experiment: Binding affinity to POPC liposome membrane assessed as cross-relaxation rate of E protons with CH2-C= segment at compound to POPC molar ratio of 1:10 by NOESY 1H NMR analysis
Lipid bilayer [21] = experiment: Binding affinity to POPC liposome membrane assessed as cross-relaxation rate of F protons with segment alpha at compound to POPC molar ratio of 1:10 by NOESY 1H NMR analysis; parameters: scale not given: the % may be the effect or the level left
Lipid bilayer [22] = experiment: Binding affinity to POPC liposome membrane assessed as cross-relaxation rate of E protons with (CH2)n segment at compound to POPC molar ratio of 1:10 by NOESY 1H NMR analysis

Row | Structure (SMILES) | Activity (Lipid bilayer [1]) | Activity (Lipid bilayer [2]) | logP at 4 h [3] | CHI [4] | Activity (Lipid bilayer [5]) | Activity (Lipid bilayer [6]) | further results
1 | O=c1ccc2c([C@@H](O)CNC3Cc4ccccc4C3)ccc(O)c2[nH]1 | Active | Active | 1.55 | 41.6 | 32 to 33.6 ppm | Active | 
2 | CCc1ccc(CC)c2c1CC(NC[C@H](O)c1ccc(O)c3[nH]c(=O)ccc13)C2 |  |  | 3.03 | 58.9 | 32 to 33.6 ppm |  | Activity (Lipid bilayer [7]): Active
3 | COc1ccc(CC(C)NCC(O)c2ccc(O)c(NC=O)c2)cc1 (stereo not drawn) |  |  |  |  | 32 to 33.6 ppm |  | Activity (Lipid bilayer [8]): Active; Activity (Lipid bilayer [9]): Active
4 | CCc1cc2c(cc1CC)CC(NC[C@H](O)c1ccc(O)c3[nH]c(=O)ccc13)C2 [INDACATEROL] | Active | Active | 3.05 | 62.5 | 32 to 33.6 ppm | Active | Activity (Lipid bilayer [10]): 20 to 40%; Activity (Lipid bilayer [11]): Active; Activity (Lipid bilayer [12]): Active; Activity (Lipid bilayer [13]): Active; Activity (Lipid bilayer [14]): Active
5 | OCc1cc(C(O)CNCCCCCCOCCCCc2ccccc2)ccc1O (stereo not drawn) [SALMETEROL] | Active | < 0.0025 s⁻¹ | 3.08 | 56.7 | 32 to 33.6 ppm | Active | Activity (Lipid bilayer [15]): 43%; Activity (Lipid bilayer [16]): 58%; Activity (Lipid bilayer [17]): 49%; Activity (Lipid bilayer [18]): Active; Activity (Lipid bilayer [19]): 26%; Activity (Lipid bilayer [20]): Active; Activity (Lipid bilayer [21]): 69%; Activity (Lipid bilayer [22]): Active
